The values below come from paper PMC6593224, “Validation and Invalidation of Chemical Probes for the Human N-myristoyltransferases” (Cell Chemical Biology, 2019).

pIC50, pKd: −log10 of the molar value. Where two headings read alike, the source gives them in different places.

In one data set the test system is human NMT1. The conditions noted are these: ref Kim et al., 2017; read-out: biochemical human NMT1 IC50; cited from earlier work.
Data set [1] deals with HeLa cells. In words: Apoptosis, active caspase-3 staining by FACS. The following applies: 18 h, 30 μM 4, 10 μM 5. On the technique in general: A flow cytometer gives signals particle by particle.
In data set [2] the test system is lysosomal acid ceramidase. Also on record: method as in Raisova et al., 2002. The conditions noted are these: various cancer cell lines, >5 μM 4; ref Raisova et al., 2002; cited from earlier work.
In data set [3] the test system is N-myristoylated proteome (NMT substrates). Put plainly: Quantitative chemical proteomics of YnMyr-tagged proteins. In kind it is cell-based, human. The conditions noted are these: MDA-MB-231 (n = 75). From the text:
HeLa and MDA-MB-231 cells were exposed (in triplicate) to 1–5, in a setup identical to that used for in-gel analyses (Figure 2A), with the exception that YnMyr-tagged proteins were ligated to AzRB. Labeled proteins were enriched on NeutrAvidin-agarose and digested on-resin with trypsin; peptides were labeled with tandem mass tag, and analyzed and quantified by nano-liquid chromatography-tandem mass spectrometry on a Thermo Q-Exactive instrument.
Cysteine carbamidomethylation was used as a fixed modification and methionine oxidation and N-terminal acetylation as variable modifications. ‘Trypsin/P’ was chosen as digestion mode enzyme, and up to two missed cleavages were allowed. The ‘match between run’ option was selected, along with ‘unique and razor peptides’ for protein quantification. TMT was set per sample group. […] The false discovery rate was set to 0.01 for peptides and a minimum of 2 unique peptides per protein were required. The mass spectrometry proteomics data have been deposited to the ProteomeXchange Consortium via the PRIDE partner repository with the dataset identifier PXD012722.

Data set [4] relates to HeLa cells. In words: Cell-cycle distribution by FACS (DNA content, EdU). The following applies: 18 h, 30 μM 4, 10 μM 5.
Data set [5] deals with NMT (in-cell target engagement, ARL1). In words: Sortase A assay (peptide addition to ARL1), human cell lines.
Description: (§1) The homogenate was further disrupted by shearing it three times through a 30G needle. […] Hereafter the reaction was quenched with 5 mM EDTA and stored at −20°C until further analysis.
A further data set has as its system MDA-MB-231 cells. In words: Nuclei counting as a measure for proliferation. It counts as cell-based, human. The protocol:
After 24, 48 or 72 h of exposure, cell viability was evaluated by determination of metabolic activity and counting of cellular nuclei. Metabolic activity was assessed by addition of Cell Titer Blue (Promega), incubation at 37°C and the appropriate percentage of CO2 for 3 h, followed by measuring the absorbance at 490 nm using a PHERAstar (BMG LabTech, Germany). For nuclei counting, cells were fixed with 4% (w/v) paraformaldehyde at room temperature (RT) for 20 min, permeabilised with 0.2% (v/v) Triton X-100 in PBS at RT for 20 min, DNA stained with 1 μg/mL DAPI (Life Technologies, D1306) at RT for 1 h, followed by three washes with PBS. Whole well images for the total number of cells were acquired with an Acumen Cellista (TTP Labtech), using the 405 nm excitation / FL1 (420-500 nm) emission channel. The cell viability was normalised to the negative control (DMSO) and positive control (Staurosporin and puromycin), followed by fitting the four-parametric variable slope function (GraphPad Prism 5.0) to data of quadruplicate experiments.

The subject of data set [6] is MDA-MB-231 and HeLa cells. In words: Bright-field microscopy. It counts as cell-based, human. The following applies: both cell lines; 18 h; 30 μM 4, 10 μM 5.
For data set [7], the target named is T1, recombinant human N-myristoyltransferase 1 (rNMT1) (Homo sapiens, UniProt P30419).
T1 construct: Full-length HsNMT1 enzyme was produced as previously described; made in house
T1 sequence (P30419 1-496): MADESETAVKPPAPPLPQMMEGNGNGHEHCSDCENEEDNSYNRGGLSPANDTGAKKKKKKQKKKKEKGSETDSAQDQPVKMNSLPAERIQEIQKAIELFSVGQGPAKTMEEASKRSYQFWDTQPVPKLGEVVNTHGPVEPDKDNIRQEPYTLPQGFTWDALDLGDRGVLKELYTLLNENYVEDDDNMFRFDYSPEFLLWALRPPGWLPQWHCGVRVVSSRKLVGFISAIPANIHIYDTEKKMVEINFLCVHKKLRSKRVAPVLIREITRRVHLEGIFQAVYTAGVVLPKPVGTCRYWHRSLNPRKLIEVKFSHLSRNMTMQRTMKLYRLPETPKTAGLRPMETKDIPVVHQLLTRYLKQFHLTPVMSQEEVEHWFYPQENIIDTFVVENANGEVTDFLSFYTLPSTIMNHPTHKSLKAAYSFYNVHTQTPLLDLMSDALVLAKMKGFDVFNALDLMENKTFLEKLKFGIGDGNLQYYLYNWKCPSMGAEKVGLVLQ
Put plainly: Enzymatic HsNMT1 assay (CPM detection of CoA thiol by-product). In kind it is biochemical. The following applies: for rNMT1 activity: below 300 μM. The protocol: After background correction, IC50 values were determined by fitting the four-parametric variable slope function (GraphPad Prism 5.0), with the stated IC50 values being the mean of two independent assays performed in triplicate.

Data set [8] deals with NMT within living cells (N-myristoylation). Put plainly: YnMyr metabolic tagging, in-gel fluorescence. The conditions noted are these: for N-myristoylation in cells (summary of assays): 1 μM IMP-366, 100 nM IMP-1088, 100 μM 2-hydroxymyristic acid, 30 μM D-NMAPPD, 10 μM Tris-DBA palladium, 18 h; for quantification of YnMyr tagging of ten bands: MDA-MB-231 and HeLa, 100 μM 3, 30 μM 4, 10 μM 5.

Data set [9] has as its system N-myristoylation in living cells. The following applies: cited from earlier work.
For data set [10], the system named is de novo protein synthesis. In words: L-AHA tagging of de novo protein synthesis. It counts as cell-based, human. The following applies: MDA-MB-231 and HeLa; 18 h; 30 μM 4, 10 μM 5. From the text:
Cells were subsequently harvested as described before (see Myristic Acid Analogue (YnMyr) Tagging Experiments).

Data set [11] concerns NMT (in-cell target engagement, ARL1). Put plainly: Sortase A assay (peptide addition to ARL1), murine cells. It counts as cell-based. The following applies: MEF and NIH3T3 cells; 100, 10 and 1 μM 4.
Description: as §1
A short description of data set [12]: Precipitation in rNMT1 buffer, absorbance at 750 nm. The conditions noted are these: 15 min at room temperature. In kind it is physicochemical. The protocol: Absorbance at 750 nm was determined after 15 min at room temperature.
and 72 h. Mean of quadruplicate measurements, ± SEM.
(E) Nuclei counts of HeLa cells after exposure to 1-5 for 24, 48 and 72 h. Mean of quadruplicate

Another data set deals with human NMTs. The conditions noted are these: read-out: In Vitro IC50, Reported, cited from earlier work.
The target of another data set is both NMTs. Also on record: method as in Mousnier et al., 2018. The conditions noted are these: ref Mousnier et al., 2018; cited from earlier work.
Data set [13] is described as follows: Precipitation in growth media. The following applies: 3 at 1 mM, directly or in a mixture with BSA; data not shown.
Where [14] appears, read: recombinant human NMT1, mean of two independent assays in triplicate, values for 3 and 4 extrapolated, read-out: In Vitro IC50, This Article.
Setting [15] is: range of concentrations, 24, 48, 72 h.

With `CCCCCCCCCCCCCC(=O)N[C@H](CO)[C@H](O)c1ccc([N+](=O)[O-])cc1` [Compound 4, D-NMAPPD], the pIC50 (as a rule, −log10 of the IC50, conventionally taken in molar units) is 4.11 in the data set on human NMT1; less than 3.52 in [7] (setting [14]); roughly 4.82 in data set [9] (ref Kim et al., 2017, read-out: IC50, capacity to reduce N-myristoylation in living cells). The “induction of apoptosis compared with MDA-MB-231” value with HeLa cells [1] was “less induction of apoptosis”. In addition, the “increase of ceramide concentrations” value in data set [2] is reported as “up to 12 fold”. In addition, the “hierarchical one-minus Pearson correlation clustering of enrichment of N-myristoylated proteins” value in data set [3] was “do not affect NMT activity”. Moreover, in the data set with HeLa cells [4], the “depletion of S phase compared with MDA-MB-231” value is reported as “correspondingly lower depletion of S phase”. Further, the “NMT inhibition (sortase A)” value in [5] (PC-3 cells, 100, 10 and 1 μM 4) is reported as “no effect”; in data set [11] it was “no effect”. Further, in the data set with MDA-MB-231 cells (30 μM 4, 24, 48, 72 h), the “effect on proliferation (nuclei counts)” value was “hindered proliferation equally at all time points”. Moreover, the cell morphology result in data set [6] is on record as “more rounded apoptotic cells”. Moreover, in data set [7], the rNMT1 activity result is “not reduced”. In addition, the “N-myristoylation in cells (summary of assays)” value in [8] is given as “unaffected”. The “quantification of YnMyr tagging of ten bands” value in data set [8] is “at most a minor reduction”. For the same compound, in [10], the “decrease in L-AHA labeling” value was 40%–80%. Further, the “concentration at which the compound precipitated (absorbance at 750 nm)” value (“concentration … (absorbance at 750 nm)” for short) in [12] is 300 µM.

Take `Cc1nn(C)c(C)c1CCOc1c(-c2ccc3c(c2)c(CN(C)C)nn3C)ccc(F)c1F` [Compound 2, IMP-1088]: the pIC50 with human NMTs (ref Mousnier et al., 2018) is greater than 9.00; in data set [7] it was 9.62. Besides, in data set [3], the “hierarchical one-minus Pearson correlation clustering of enrichment of N-myristoylated proteins” value is “very similar to that of control cells not treated with YnMyr”. Also, the “NMT engagement (sortase A)” value in data set [5] (all cell lines tested (panel of nine, incl. murine MEF and NIH3T3)) is “engaged NMT”. For the same compound, the “effect on proliferation (nuclei counts)” value in the data set with MDA-MB-231 cells (setting [15]) is “only after 48 and 72 h”. For the same compound, the negative logarithm of the Kd (pKd) (as a rule, −log10 of the Kd, conventionally taken in molar units) at both NMTs was roughly 9.70. The “N-myristoylation in cells (summary of assays)” value in data set [8] is “complete inhibition”; in data set [8] (listed as IMP-1088), “complete and specific inhibition”. In addition, the “concentration for complete inhibition of in-cell N-myristoylation above the IC50 toward recombinant NMT1” value in data set [8] (approximately) is listed as 30- to 100 fold. The N-myristoylation in cells result in data set [9] (low nanomolar concentrations, ref Mousnier et al., 2018) was “completely inhibited”. Further, the “concentration … (absorbance at 750 nm)” value in [12] is reported as “above 300 μM”.

Consider `CCCCCCCCCCCCC(O)C(=O)O` (centres unmarked) [Compound 3, 2-hydroxymyristic acid], for which the pIC50 with human NMTs (ref Paige et al., 1990) was 4.00; in data set [7] (setting [14]) it was less than 3.52. The “hierarchical one-minus Pearson correlation clustering of enrichment of N-myristoylated proteins” value in data set [3] is “do not affect NMT activity”. The “NMT inhibition (sortase A)” value in data set [5] (Jurkat, HEK293 and NCI-H23 cells, 100, 10 and 1 μM 3) is “did not inhibit NMT”. Also, the “effect of addition to medium” value in [13] was “precipitation in the medium and cell death”. Also, the “effect on proliferation (nuclei counts)” value in the data set on MDA-MB-231 cells (setting [15]) was “unaffected”. Further, in [7] (100 μM 3, while soluble), the “inhibition of recombinant NMT1” value is “did not inhibit”. Also, the rNMT1 activity entry in data set [7] is listed as “not reduced”. In addition, the “N-myristoylation in cells (summary of assays)” value in data set [8] is “did not inhibit”; in [8] (listed as 2-Hydroxymyristate), “inactive”; in data set [8] (listed as 2-hydroxymyristic acid), “unaffected”. Further, the “quantification of YnMyr tagging of ten bands” value in data set [8] is reported as “at most a minor reduction”. Further, the “metabolic labeling of cells with [3H]myristate” value in data set [9] (100 μM to 1 mM, ref Vaandrager et al., 1996, Tan et al., 2016) is listed as “reduce metabolic labeling”. Besides, in data set [12], the “concentration … (absorbance at 750 nm)” value was 300 µM.
